The values that follow come from US20050009052A1 (priority 2003, published 2005).

Test [1] concerns rlm1Δ/rlm1Δ strain. In words: Growth of individually cultured yeast strain with inhibitor (O.D.600). It counts as cell-based, Saccharomyces cerevisiae. The note with it: rlm1Δ/rlm1Δ grown individually, YPD, 30° C.; staurosporine 1 μM, caffeine 8 mM, tunicamycin 0.4 μg/ml.
Test [2] has as its system rlm1Δ/rlm1Δ strain. In words: Differential Tag Length Analysis (DTLA) of 11-strain mixed yeast culture with inhibitor. The note with it: 20 hours. The class given is cell-based, Saccharomyces cerevisiae. As for the experimental part:
(§1) Strains, media and inhibitors.
(§2) Tag amplification and capillary electrophoresis. Oligonucleotides Fluor-1 (6-Fam-[…]) and Pho-1 (Phosphate-[…]) were used for the amplification of tag DNAs. PCR reactions were performed in 50 μl reaction volume containing the 2 primers at a final concentration of 1 μM each and 2.5 units of Stoffel fragment AmpliTaq DNA polymerase (Applied Biosystems, Foster City, Calif.). After an initial 2 min denaturing step at 94° C., the reactions underwent 30 amplification cycles (94° C., 30 sec; 60° C., 30 sec; 72° C., 30 sec with a 6 sec increase in extension time per cycle) followed by a post-amplification extension step (72° C., 10 min). As a template for the PCR reactions, 100 ng of plasmid DNA, 700 ng of genomic DNA (extracted from yeast strains using MasterPure Yeast DNA purification kit; Epicentre, Madison, Wis.), or an equivalent to 0.5 μl of saturated culture of yeast protoplasts (prepared by using lyticase) (see, e.g., Chen et al., Biotechniques 19:744-746 (1995)) was used. The PCR products were incubated with λ-exonuclease for 1 h at 37° C. and then purified using MinElute PCR purification kit (QIAGEN Inc., Valencia, Calif.). After 1 h digestion with EcoRI, the PCR products were again purified with the same kit and adjusted to 70% formamide and 1 mM EDTA and analyzed by capillary electrophoresis on ABI Prism 3700 DNA analyzer (Applied Biosystems, Foster City, Calif.) using 3700 POP-5 polymer.
(§3) Data analysis. To access the raw fluorescence data collected by ABI Prism 3700 DNA analyzer, a Visual Basic program was used that extracted the electropherogram values and converted them into a text file format. Peak quantitation was then performed using Caesar Workstation 5.0 (SciBridge Software, Los Angeles, Calif.). In the majority of cases, the relative representation of each tag in the PCR product was calculated by dividing the area under the corresponding tag peak by the sum of all tag peak areas. For the measurement of different input amounts of tag 42, the average peak area of the other 10 tags was first calculated. The area value of tag 42 was then divided by this averaged value to give normalized tag 42 area.

Test [3] relates to pde2Δ/pde2Δ strain. The description is as above. It counts as cell-based, Saccharomyces cerevisiae. The note with it: 20 hours. On the procedure:
as §1, §2, §3

The subject of the next test is act1Δ/ACT1 strain. Described as above. It counts as cell-based, Saccharomyces cerevisiae. The note with it: 20 hours. On the procedure:
as §1, §2, §3

In the next test the test system is pkc1Δ/PKC1 strain. Described as above. The class given is cell-based, Saccharomyces cerevisiae. The settings on record: 20 hours, caffeine 8 mM. As for the experimental part: as §1, §2, §3
For test [4], the system named is gim4Δ/gim4Δ strain. The test is described as above. It counts as cell-based, Saccharomyces cerevisiae. As for the experimental part: as §1, §2, §3
Test [5] deals with bro1Δ/bro1Δ strain. Described as above. It counts as cell-based, Saccharomyces cerevisiae. The note with it: 20 hours; for increase of strain representation in the mixture: staurosporine 1 μM, latrunculin B 2 μg/ml. As for the experimental part:
as §1, §2, §3

Test [6] concerns bro1Δ/bro1Δ strain. The settings on record: bro1Δ/bro1Δ grown individually, YPD, 30° C.; staurosporine 1 μM, caffeine 8 mM.
Test [7] relates to pac10Δ/pac10Δ strain. It counts as cell-based, Saccharomyces cerevisiae. The note with it: pac10Δ/pac10Δ grown individually, YPD, 30° C.; staurosporine 1 μM, caffeine 8 mM, latrunculin B 2 μg/ml.
The subject of test [8] is pdr5Δ/pdr5Δ strain. In words: Differential Tag Length Analysis (DTLA) of 11-strain mixed yeast culture with inhibitor. The class given is cell-based, Saccharomyces cerevisiae. The note with it: pdr5Δ/pdr5Δ in mixed culture, 20 hours; latrunculin B 2 μg/ml. On the procedure: as §1, §2, §3
Test [9] has as its system pdr5Δ/pdr5Δ strain. The class given is cell-based, Saccharomyces cerevisiae. The note with it: pdr5Δ/pdr5Δ grown individually, YPD, 30° C.; staurosporine 1 μM, latrunculin B 2 μg/ml.
Test [10] concerns gim4Δ/gim4Δ strain. It counts as cell-based, Saccharomyces cerevisiae. The note with it: gim4Δ/gim4Δ grown individually, YPD, 30° C.; staurosporine 1 μM, latrunculin B 2 μg/ml.
Test [11] has as its system pde2Δ/pde2Δ strain. Put plainly: Growth of individually cultured yeast strain with inhibitor (O.D.600). It counts as cell-based, Saccharomyces cerevisiae. The note with it: pde2Δ/pde2Δ grown individually, YPD, 30° C.; staurosporine 1 μM, latrunculin B 2 μg/ml.
For the next test, the system named is ACT1/act1Δ strain. The class given is cell-based, Saccharomyces cerevisiae. The settings on record: ACT1/act1Δ grown individually, YPD, 30° C.; staurosporine 1 μM, latrunculin B 2 μg/ml.
Test [12] concerns pac10Δ/pac10Δ strain. It counts as cell-based, Saccharomyces cerevisiae. The settings on record: pac10Δ/pac10Δ in mixed culture, 20 hours.
Test [13] deals with alg7Δ/ALG7 strain. Put plainly: Differential Tag Length Analysis (DTLA) of 11-strain mixed yeast culture with inhibitor. It counts as cell-based, Saccharomyces cerevisiae. The note with it: alg7Δ/ALG7 in mixed culture, 20 hours; tunicamycin 0.4 μg/ml. As for the experimental part: as §1, §2, §3
For test [14], the system named is alg7Δ/ALG7 strain. It counts as cell-based, Saccharomyces cerevisiae. The settings on record: alg7Δ/ALG7 grown individually, YPD, 30° C.; staurosporine 1 μM, tunicamycin 0.4 μg/ml.

Take `Cn1c(=O)c2c(ncn2C)n(C)c1=O` [caffeine]: the “sensitivity of growth to inhibitor” value with rlm1Δ/rlm1Δ strain [1], with bro1Δ/bro1Δ strain [6] and with pac10Δ/pac10Δ strain [7] was “sensitive” throughout. In addition, the “effect on growth of strain in mixed culture” value in the test on rlm1Δ/rlm1Δ strain [2] (caffeine 8 mM) was “decreased growth”; in the test with pde2Δ/pde2Δ strain [3] (caffeine 8 mM), “decreased growth”; with act1Δ/ACT1 strain (caffeine 8 mM) it was “decreased growth”; with gim4Δ/gim4Δ strain [4] (caffeine 8 mM), “exhibited sensitivity in the mixture”; in the test on bro1Δ/bro1Δ strain [5] (caffeine 8 mM) it was “decreased growth”. For the same molecule, the “increase of strain representation in the mixture” value (shortened to “increase of strain representation”) with pkc1Δ/PKC1 strain came to 97%.

In the case of `C/C1=C/C(=O)O[C@@H]2C[C@@H](CC[C@H](C)/C=C\CC1)O[C@@](O)([C@@H]1CSC(=O)N1)C2` [latrunculin B], the “strain representation compared with the non-treated culture (reduced to)” value in the test with pde2Δ/pde2Δ strain [3] (pde2Δ/pde2Δ in mixed culture, latrunculin B 2 μg/ml) is “less than 50%”; in the test with act1Δ/ACT1 strain (act1Δ/ACT1 in mixed culture, latrunculin B 2 μg/ml), “less than 50%”; in the test on gim4Δ/gim4Δ strain [4] (gim4Δ/gim4Δ in mixed culture, 20 hours, latrunculin B 2 μg/ml), “less than 50%”; in the test with pdr5Δ/pdr5Δ strain [8], “less than 50%”; in the test on pac10Δ/pac10Δ strain [12] (latrunculin B 2 μg/ml), “less than 50%”. In the test with bro1Δ/bro1Δ strain [5], the “increase of strain representation” value is recorded as 123%. The “sensitivity of growth to inhibitor” value with pdr5Δ/pdr5Δ strain [9], with gim4Δ/gim4Δ strain [10], with pde2Δ/pde2Δ strain [11], in the test on ACT1/act1Δ strain and in the test with pac10Δ/pac10Δ strain [7] was “inhibited the growth” each time.

`CN[C@@H]1C[C@H]2O[C@@](C)([C@@H]1OC)n1c3ccccc3c3c4c(c5c6ccccc6n2c5c31)C(=O)NC4` [staurosporine]: the “increase of strain representation” value was found to be 200% in the test on pde2Δ/pde2Δ strain [3] (staurosporine 1 μM) and 340% with bro1Δ/bro1Δ strain [5].

Regarding tunicamycin, the “sensitivity of growth to inhibitor” value with rlm1Δ/rlm1Δ strain [1] and in the test with alg7Δ/ALG7 strain [14] was “slowed the growth” each time. The “decrease/reduction of strain relative to the non-treated culture” value in the test with rlm1Δ/rlm1Δ strain [2] (rlm1Δ/rlm1Δ in mixed culture, staurosporine 1 μM, tunicamycin 0.4 μg/ml) is recorded as 59%. The “reduction of strain relative to the non-treated culture” value in the test with alg7Δ/ALG7 strain [13] was 83%. Further, the “increase of strain representation” value in the test with pac10Δ/pac10Δ strain [12] (tunicamycin 0.4 μg/ml) is reported as 82%.
